# Measured values: ChEMBL document CHEMBL1143795, “Synthesis and antimalarial activity of new 1,12-bis(N,N'-acetamidinyl)dodecane derivatives” (Bioorg Med Chem Lett, 2007)
# Legend:
# Plasmodium falciparum [1] = assay: Antimalarial activity against Plasmodium falciparum Nigerian; format: functional, organism-based
# [2] = system: Plasmodium vinckei petteri; assay: Antimalarial activity against Plasmodium vinckei petteri 279BY infected peroral dosed Swiss mice (Mus musculus); format: functional; settings: po
# [3] = system: Plasmodium vinckei petteri; assay: Antimalarial activity against Plasmodium vinckei petteri 279BY infected intraperitoneal dosed Swiss mice (Mus musculus); format: functional; settings: ip
# Plasmodium falciparum [4] = assay: microbe, parasite or virus in culture; settings: W2
# Description: Antimalarial activity against Plasmodium falciparum W2
# Plasmodium falciparum [5] = assay: microbe, parasite or virus in culture; settings: FCM29
# Description: Antimalarial activity against Plasmodium falciparum FCM29
SMILES,IC50 (Plasmodium falciparum [1]) [nM],ED50 [2] [mg/kg],ED50 [3] [mg/kg],IC50 (Plasmodium falciparum [4]) [nM],IC50 (Plasmodium falciparum [5]) [nM]
C/C(=N\OS(C)(=O)=O)NCCCCCCCCCCCCN/C(C)=N/OS(C)(=O)=O,12,42,4.7,,
Cc1noc(=O)n1CCCCCCCCCCCCn1c(C)noc1=O,7100,62,> 9,,
CC(=O)O/N=C(\C)NCCCCCCCCCCCCN/C(C)=N/OC(C)=O,1800,> 90,7.1,,
C/C(=N\OC(=O)c1ccccc1)NCCCCCCCCCCCCN/C(C)=N/OC(=O)c1ccccc1,68.7,> 90,> 9,,
CCNC(=O)O/N=C(\C)NCCCCCCCCCCCCN/C(C)=N/OC(=O)NCC,93,> 90,> 10,,
C/C(=N\OC(=O)Nc1ccccc1)NCCCCCCCCCCCCN/C(C)=N/OC(=O)Nc1ccccc1,135,> 90,10,,
CC(=N)NCCCCCCCCCCCCNC(C)=N,,> 200,3.1,8.1,4
C/C(=N\O)NCCCCCCCCCCCCN/C(C)=N/O,310,90,9.2,,
CCOP(=O)(OCC)O/N=C(\C)NCCCCCCCCCCCCN/C(C)=N/OP(=O)(OCC)OCC,9.6,> 90,> 9,,
CO/N=C(\C)NCCCCCCCCCCCCN/C(C)=N/OC,4350,110,> 10,,
